Assay results published in patent US20240156832A1, “METHODS OF METABOLIZING METOPIMAZINE AND ITS SALTS” (Neurogastrx, Inc., priority 2020, published 2024).
“Also recorded” adds a separate entry of the source.

Tests used:
[1] = tested on: human microsomal liver amidase; assay: Incubations with HLM for microsomal hydrolase/amidase activity; format: in vitro ADME; conditions: HLM, 10 μM MPZ, 60 min, pH 7.4, 8.4 and 9.4
Description: Incubations with HLM for Microsomal Hydrolase/Amidase Activity Prior to the reaction for amidase activity, the reaction mixture containing KPi buffer (pH 7.4, 8.4, or 9.4) and HLM was pre-incubated at 50° C. for 5 minutes to inactivate CYP and FMO activities in HLM. The mixture was placed on ice to cool down. An aliquot was taken out which was considered as t=0 min incubation. Then 10 μM MPZ was added into the remaining mixture and incubated at 37° C. on an orbital shaker for 60 minutes. A parallel set of incubations was conducted with 10 μM MPZ in the presence at 2 and 16 μM, of BNPP (a known inhibitor of amidase). All reactions were in triplicate. The total percentage of organic solvent in incubation mixture was ≤0.1%. The reactions were terminated by the addition of chilled acetonitrile: methanol, 90:10, (v/v). The samples were vortex-mixed and stored at ≤−70° C. and were subjected analyzed by LC MS/MS.

human D2 receptor = human D2 receptor (Homo sapiens, UniProt P14416); conditions: relative to MPZ; cited from earlier work
Chain of human D2 receptor (P14416 whole entry): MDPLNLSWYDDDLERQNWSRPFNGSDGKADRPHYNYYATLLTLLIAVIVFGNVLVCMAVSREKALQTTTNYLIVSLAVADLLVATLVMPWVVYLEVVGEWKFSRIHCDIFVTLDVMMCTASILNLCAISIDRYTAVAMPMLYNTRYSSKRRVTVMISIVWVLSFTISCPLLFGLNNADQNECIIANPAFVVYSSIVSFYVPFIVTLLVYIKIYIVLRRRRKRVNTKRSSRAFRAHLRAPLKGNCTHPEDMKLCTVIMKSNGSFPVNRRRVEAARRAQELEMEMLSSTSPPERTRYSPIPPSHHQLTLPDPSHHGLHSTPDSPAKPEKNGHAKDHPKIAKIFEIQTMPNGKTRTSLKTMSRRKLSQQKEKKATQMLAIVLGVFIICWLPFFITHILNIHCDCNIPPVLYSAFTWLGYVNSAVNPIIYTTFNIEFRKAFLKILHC

[2] = target: T1, human liver cytosolic aldehyde oxidase (Homo sapiens, UniProt Q06278); assay: Incubations with HLC fractions for AO activity; format: in vitro ADME; conditions: HLC 1 mg/mL, 10 μM MPZ
T1 construct: tissue Xenotech; host or cells: pooled human liver cytosol
T1 sequence (Q06278 1-1338): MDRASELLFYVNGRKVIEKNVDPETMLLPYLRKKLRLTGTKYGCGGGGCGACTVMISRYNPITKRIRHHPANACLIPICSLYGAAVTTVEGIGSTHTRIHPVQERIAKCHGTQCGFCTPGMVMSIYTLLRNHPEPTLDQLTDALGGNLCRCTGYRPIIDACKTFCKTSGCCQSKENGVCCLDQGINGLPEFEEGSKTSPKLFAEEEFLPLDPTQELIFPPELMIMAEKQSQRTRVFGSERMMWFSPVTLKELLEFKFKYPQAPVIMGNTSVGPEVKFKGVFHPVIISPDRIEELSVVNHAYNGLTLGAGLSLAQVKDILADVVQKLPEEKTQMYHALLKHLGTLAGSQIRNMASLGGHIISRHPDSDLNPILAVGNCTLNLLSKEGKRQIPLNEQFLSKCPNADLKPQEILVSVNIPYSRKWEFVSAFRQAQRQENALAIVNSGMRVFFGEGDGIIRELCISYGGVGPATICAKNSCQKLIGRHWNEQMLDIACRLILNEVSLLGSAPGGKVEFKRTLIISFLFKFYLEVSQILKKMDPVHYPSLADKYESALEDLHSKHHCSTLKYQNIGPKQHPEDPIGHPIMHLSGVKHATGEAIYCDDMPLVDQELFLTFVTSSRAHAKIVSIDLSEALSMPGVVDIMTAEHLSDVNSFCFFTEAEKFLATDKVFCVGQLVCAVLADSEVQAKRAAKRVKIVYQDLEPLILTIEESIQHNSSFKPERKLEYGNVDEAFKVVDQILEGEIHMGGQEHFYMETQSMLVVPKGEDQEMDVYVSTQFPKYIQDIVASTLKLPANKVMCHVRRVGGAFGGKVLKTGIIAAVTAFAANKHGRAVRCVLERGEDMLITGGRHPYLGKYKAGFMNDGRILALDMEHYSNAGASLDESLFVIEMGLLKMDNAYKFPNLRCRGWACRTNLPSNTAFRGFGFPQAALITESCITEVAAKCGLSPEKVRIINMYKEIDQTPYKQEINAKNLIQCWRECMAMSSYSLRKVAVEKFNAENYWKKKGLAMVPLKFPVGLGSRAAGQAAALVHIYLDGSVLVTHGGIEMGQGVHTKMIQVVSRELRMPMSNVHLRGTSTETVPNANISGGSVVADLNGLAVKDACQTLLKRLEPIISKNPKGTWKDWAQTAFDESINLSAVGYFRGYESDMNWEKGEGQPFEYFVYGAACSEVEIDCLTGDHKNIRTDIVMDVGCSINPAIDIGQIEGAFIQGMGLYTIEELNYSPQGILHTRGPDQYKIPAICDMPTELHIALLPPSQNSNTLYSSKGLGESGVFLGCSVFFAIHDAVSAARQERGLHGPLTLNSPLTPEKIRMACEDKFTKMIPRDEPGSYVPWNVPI
Description: The metabolism of MPZ was evaluated in the human liver cytosolic incubation. A metabolic incubation was performed with HLC (1 mg/mL protein) and 10 μM MPZ at 37° C. for on an orbital shaker for 60 min. […] Another set of incubation was also conducted 1 μM phthalazine, a known substrate for aldehyde oxidase as positive control, under identical conditions.

[3] = tested on: rhFMO1, rhFMO3, and rhFMO5; assay: Incubation with recombinant FMO; format: in vitro ADME, human; conditions: 1 μM MPZ, pH 8.4
Description: Protein concentrations for all rFMO isoforms were 0.05 mg/mL. A positive control (benzydamine, 100 μM) was incubated for 20 minutes. […] All other procedures were the same as described previously. The negative control reactions were incubated absence of NADPH.

CS(=O)(=O)c1ccc2c(c1)N(CCCN1CCC(C(=O)O)CC1)c1ccccc1S2 [MPZA, metopimazine acid]
MPZA formation as a function of pH [1]: faster the higher the pH; also recorded: maximal at the highest pH tested, pH 9.4; also recorded: occurs at all pHs and increases at pHs above physiologic pH | less potent at the human D2 receptor compared to the parent (human D2 receptor): about 200 fold | Metopimazine Acid Formation, 100 μM Menadione ([2]; incubation time 0 min): 0.00 nM | Metopimazine Acid Formation, No Menadione ([2]; incubation time 0 min): 0.00 nM | Metopimazine Acid Formation, 100 μM Menadione ([2]; incubation time 60 min): 718.90 ± 21.40 nM | Metopimazine Acid Formation, No Menadione ([2]; incubation time 60 min): 1371.66 ± 70.93 nM

CS(=O)(=O)c1ccc2c(c1)N(CCCN1CCC(C(N)=O)CC1)c1ccccc1S2 [MPZ, metopimazine]
metabolism of MPZ by recombinant FMO enzymes [3]: did not metabolize MPZ
